Reference: ChEMBL document CHEMBL4359836, “Synthesis and Biological Assessment of Pyrrolobenzoxazine Scaffold as a Potent Antioxidant” (J Med Chem, 2019)
Calls of active or inactive are those of the source. The calls are words filed in the database; no cut-off is given here.

How the values were obtained:
Mitochondria [1] = assay: Antioxidant activity in goat cardiac mitochondria assessed as inhibition of CuCl2/ascorbic acid-induced manganese superoxide dismutase at 8.25 uM after 1 hr by pyrogallol autoxidation method relative to control; format: functional, subcellular; conditions: Capra hircus, Heart, Mitochrondria
[2] = Antioxidant activity in pH 10 Tris-HCl buffer assessed as superoxide anion radical scavenging activity by measuring rate of epinephrine auto-oxidation by spectrophotometric analysis; format: functional
[3] = Reducing power of the compound assessed as reducing Fe3+ power at 80 uM using K3Fe(CN)6 in pH 6.6 phosphate buffer after 20 mins by spectrophotometric analysis
[4] = Antioxidant activity in pH 7.4 phosphate buffer assessed as DPPH radical scavenging activity by measuring trolox equivalent antioxidant capacity by measuring IC50 Trolox/IC50 test compound ratio after 30 mins by spectrophotometric analysis; format: functional
Mitochondria [5] = assay: Antioxidant activity in goat cardiac mitochondria assessed as inhibition of CuCl2/ascorbic acid-induced lipid peroxidation at 33 uM after 1 hr by thiobarbituric acid based UV-Visible spectrophotometric method (reference value: 60.11%); format: functional, subcellular; conditions: Capra hircus, Heart, Mitochrondria
Mitochondria [6] = assay: Antioxidant activity in goat cardiac mitochondria assessed as inhibition of CuCl2/ascorbic acid-induced protein carbonyl content at 16.5 uM after 1 hr by DNPH assay relative to control; format: functional, subcellular; conditions: Capra hircus, Heart, Mitochrondria
Mitochondria [7] = assay: Antioxidant activity in goat cardiac mitochondria assessed as inhibition of CuCl2/ascorbic acid-induced protein carbonyl content at 66 uM after 1 hr by DNPH assay relative to control; format: functional, subcellular; conditions: Capra hircus, Heart, Mitochrondria
Mitochondria [8] = assay: Antioxidant activity in goat cardiac mitochondria assessed as inhibition of CuCl2/ascorbic acid-induced manganese superoxide dismutase at 33 uM after 1 hr by pyrogallol autoxidation method relative to control; format: functional, subcellular; conditions: Capra hircus, Heart, Mitochrondria
Mitochondria [9] = assay: Antioxidant activity in goat cardiac mitochondria assessed as inhibition of CuCl2/ascorbic acid-induced manganese superoxide dismutase after 1 hr by pyrogallol autoxidation method; format: functional, subcellular; conditions: Capra hircus; Heart; Mitochrondria
Mitochondria [10] = assay: Antioxidant activity in goat cardiac mitochondria assessed as reversal of CuCl2/ascorbic acid-induced reduction in GSH level at 16.5 uM after 1 hr by DTNB reagent based method relative to control; format: functional, subcellular; conditions: Capra hircus, Heart, Mitochrondria
Mitochondria [11] = assay: Antioxidant activity in goat cardiac mitochondria assessed as reversal of CuCl2/ascorbic acid-induced reduction in GSH level at 33 uM after 1 hr by DTNB reagent based method relative to control; format: functional, subcellular; conditions: Capra hircus, Heart, Mitochrondria
Mitochondria [12] = assay: Antioxidant activity in goat cardiac mitochondria assessed as reversal of CuCl2/ascorbic acid-induced reduction in PDH level at 8.25 uM using sodium pyruvate as substrate after 1 hr by spectrophotometric analysis (reference value: 66.25%); format: functional, subcellular; parameters: scale not given: the % may be the effect or the level left; conditions: Capra hircus, Heart, Mitochrondria
Mitochondria [13] = assay: Antioxidant activity in goat cardiac mitochondria assessed as reversal of CuCl2/ascorbic acid-induced reduction in PDH level at 16.5 uM using sodium pyruvate as substrate after 1 hr spectrophotometric analysis (reference value: 66.25%); format: functional, subcellular; parameters: scale not given: the % may be the effect or the level left; conditions: Capra hircus, Heart, Mitochrondria
Mitochondria [14] = assay: Antioxidant activity in goat cardiac mitochondria assessed as reversal of CuCl2/ascorbic acid-induced reduction in ICDH level at 66 uM using isocitrate as substrate after 1 hr relative to control; format: functional, subcellular; conditions: Capra hircus, Heart, Mitochrondria
Mitochondria [15] = assay: Antioxidant activity in goat cardiac mitochondria assessed as reversal of CuCl2/ascorbic acid-induced reduction in alpha-KGDH level at 16.5 uM using alpha-ketoglutarate as substrate after 1 hr (reference value: 69.78%); format: functional, subcellular; parameters: scale not given: the % may be the effect or the level left; conditions: Capra hircus, Heart, Mitochrondria
Mitochondria [16] = assay: Antioxidant activity in goat cardiac mitochondria assessed as reversal of CuCl2/ascorbic acid-induced reduction in SDH level at 8.25 uM using succinate as substrate after 1 hr by spectrophotometric analysis (reference value: 71.51%); format: functional, subcellular; parameters: scale not given: the % may be the effect or the level left; conditions: Capra hircus, Heart, Mitochrondria
[17] = Effect on PDH levels in goat cardiac mitochondria at 8.25 to 66 uM using sodium pyruvate as substrate after 1 hr by spectrophotometric analysis; format: ADME, subcellular, Capra hircus, Heart, Mitochrondria
[18] = Effect on ICDH levels in goat cardiac mitochondria at 8.25 to 66 uM using isocitrate as substrate after 1 hr; format: ADME, subcellular, Capra hircus, Heart, Mitochrondria
[19] = Effect on alpha-KGDH levels in goat cardiac mitochondria at 8.25 to 66 uM using alpha-ketoglutarate as substrate after 1 hr; format: ADME, subcellular, Capra hircus, Heart, Mitochrondria
[20] = Effect on SDH levels in goat cardiac mitochondria at 8.25 to 66 uM using succinate as substrate after 1 hr by spectrophotometric analysis; format: ADME, subcellular, Capra hircus, Heart, Mitochrondria
[21] = Inhibition of succinate dehydrogenase in goat cardiac mitochondria assessed as effect on Vmax at 66 uM using succinate as substrate after 1 hr by Lineweaver-Burk double reciprocal plot analysis; parameters: species or system Capra hircus, Heart
Capra hircus [22] = organism: Capra hircus; assay: Effect on succinate dehydrogenase in goat cardiac mitochondria assessed as reversal of CuCl2/ascorbic acid induced reduction in Vmax at 66 uM using succinate as substrate after 1 hr by Lineweaver-Burk double reciprocal plot analysis; conditions: Heart
Capra hircus [23] = organism: Capra hircus; assay: Effect on succinate dehydrogenase in goat cardiac mitochondria assessed as reversal of CuCl2/ascorbic acid induced reduction in Km at 66 uM using succinate as substrate after 1 hr by Lineweaver-Burk double reciprocal plot analysis; conditions: Heart
[24] = Effect on manganese superoxide dismutase-like activity in cardiac mitochondria at 8.25 to 66 uM after 1 hr by pyrogallol autoxidation method relative to control; format: ADME, subcellular, Capra hircus, Heart, Mitochrondria; conditions: goat
Mitochondria [25] = assay: (§1) Protective activity against CuCl2/ascorbic acid-induced apoptotic alteration in goat cardiac mitochondria assessed as reversal of CuCl2/ascorbic acid-induced reduction in cytochrome c oxidoreductase activity incubated for 1 hr and measured at 10 secs time interval for 90 secs by spectrophotometric analysis; format: functional, subcellular; conditions: Capra hircus; Heart; Mitochrondria
Mitochondria [26] = assay: as §1, with “oxidoreductase activity at 16.5 uM incubated for” for “oxidoreductase activity incubated for”, “spectrophotometric analysis (reference value: 47.82%)” for “spectrophotometric analysis”; format: functional, subcellular; parameters: scale not given: the % may be the effect or the level left; conditions: Capra hircus, Heart, Mitochrondria
Mitochondria [27] = assay: as §1, with “at 33 uM” for “incubated for 1 hr and”, “analysis (reference value: 47.82%)” for “analysis”; format: functional, subcellular; parameters: scale not given: the % may be the effect or the level left; conditions: Capra hircus, Heart, Mitochrondria
Mitochondria [28] = assay: as §1, with “oxidase” for “oxidoreductase”, “at 8.25 uM” for “incubated for 1 hr”, “analysis (reference value: 72.41%)” for “analysis”; format: functional, subcellular; parameters: scale not given: the % may be the effect or the level left; conditions: Capra hircus, Heart, Mitochrondria
[29] = Effect on cytochrome c oxidase activity in goat cardiac mitochondria at 8.25 to 66 uM incubated for 1 hr and measured at 10 secs time interval for 90 secs by spectrophotometric analysis; format: ADME, subcellular, Capra hircus, Heart, Mitochrondria
Mitochondria [30] = assay: Protective activity in goat cardiac mitochondria assessed as inhibition of CuCl2/ascorbic acid-induced convoluted membranes at 66 uM incubated for 1 hr by scanning electron microscopy; format: functional, subcellular; conditions: Capra hircus, Heart, Mitochrondria
Mitochondria [31] = assay: Protective activity in goat cardiac mitochondria assessed as inhibition of CuCl2/ascorbic acid-induced perforated surface at 66 uM incubated for 1 hr by scanning electron microscopy; format: functional, subcellular; conditions: Capra hircus, Heart, Mitochrondria
Mitochondria [32] = assay: Protective activity in goat cardiac mitochondria assessed as reduction in CuCl2/ascorbic acid-induced calcium accumulation at 66 uM after 60 min (reference value: 25.32%); format: functional, subcellular; parameters: scale not given: the % may be the effect or the level left; conditions: Capra hircus, Heart, Mitochrondria
[33] = Binding affinity to ascorbate assessed as decrease in heat change at 66 uM in presence of ascorbic acid by isothermal titration calorimetry
[34] = Binding affinity to Cu2+ assessed as binding constant K1 at 66 uM in presence of ascorbic acid/CuCl2 by isothermal titration calorimetry
[35] = Binding affinity to Cu2+ assessed as binding constant K3 at 66 uM in presence of CuCl2 by isothermal titration calorimetry
[36] = Binding affinity to Cu2+ assessed as binding constant K4 at 66 uM in presence of CuCl2 by isothermal titration calorimetry

inhibition (INH) [21]: Not Active
Activity (Capra hircus [22]): Active
Activity (Capra hircus [23]): Active
Activity (Mitochondria [25]): Dose-dependent effect
Activity (Mitochondria [26]): 35.2%
Activity (Mitochondria [27]): 49.8%
Activity (Mitochondria [28]): 56.2%
Activity [33]: Active
K [34]: 8.7 ×10⁴ /M
K [35]: 1.04 ×10⁵ /M
K [36]: 9 ×10⁴ /M
Structure (SMILES): CCOC(=O)c1c(-c2ccc(O)c(OC)c2)cn2c1c(=O)oc1ccccc12
inhibition (Mitochondria [1]): 25.7%
Activity [2]: Dose-dependent effect
Activity [3]: Dose-dependent effect
Ratio IC50 [4]: 0.78
inhibition (Mitochondria [5]): 28.2%
inhibition (Mitochondria [6]): 44%
inhibition (Mitochondria [7]): 72.1%
inhibition (Mitochondria [8]): 41.6%
Activity (Mitochondria [9]): Dose-dependent effect
fold change (FC) (Mitochondria [10]): 3.06
fold change (FC) (Mitochondria [11]): 4.66
Activity (Mitochondria [12]): 49.3%
Activity (Mitochondria [13]): 94.5%
fold change (FC) (Mitochondria [14]): 3.52
Activity (Mitochondria [15]): 85.4%
Activity (Mitochondria [16]): 51.7%
Activity [17]: Non-Toxic
Activity [18]: Non-Toxic
Activity [19]: Non-Toxic
Activity [20]: Non-Toxic
Activity [24]: Non-Toxic
Activity [29]: Non-Toxic
Activity (Mitochondria [30]): Active
Activity (Mitochondria [31]): Active
Activity (Mitochondria [32]): 15%
